We go through seven compounds from patent publication US10004701B2, “Methods and compositions for treating infection” (UNIVERSITY OF ROCHESTER, priority 2012, dated 2018).

Test in all cases: AK assay 384-well format, Prestwick library screening
One test relates to E. faecium. In kind it is cell-based, Enterococcus faecium. The note with it: 50 μM final drug concentration; for fold induction at 50 µM: Enterococcus faecium, 3 h.
For test [1], the system named is S. aureus strain USA300-0114. In kind it is cell-based, Staphylococcus aureus. The note with it: 50 μM final drug concentration; for fold induction at 50 µM: Staphylococcus aureus, USA300, 3 h.
A further test has as its system K. pneumoniae. It is filed as cell-based, Klebsiella pneumoniae. As to conditions: 50 μM final drug concentration; for fold induction at 50 µM: Klebsiella pneumoniae, 3 h.
Test [2] deals with A. baumannii strain 98-37-09. It is filed as cell-based, Acinetobacter baumannii. The note with it: 50 μM final drug concentration; for fold induction at 50 µM: Acinetobacter baumannii, 983709, 3 h.
The next test relates to P. aeruginosa. In kind it is cell-based, Pseudomonas aeruginosa. The note with it: 50 μM final drug concentration; for fold induction at 50 µM: Pseudomonas aeruginosa, 3 h.
For the next test, the system named is E. cloacae. It is filed as cell-based, Enterobacter cloacae. As to conditions: 50 μM final drug concentration; for fold induction at 50 µM: Enterobacter cloacae, 3 h.
The next test concerns E. coli. It is filed as cell-based, Escherichia coli. As to conditions: 50 μM final drug concentration; for fold induction at 50 µM: Escherichia coli, 3 h.
Setting [3] is: planktonic, cutoff for positive-scoring molecules 3-fold increase, read-out: AK-based Prestwick Library Screening Results, E. faecium (fold increase in extracellular AK activity).
Setting [4] is: planktonic, cutoff for positive-scoring molecules 3-fold increase, read-out: AK-based Prestwick Library Screening Results, S. aureus (fold increase in extracellular AK activity).
Setting [5] is: planktonic, cutoff for positive-scoring molecules 3-fold increase, read-out: AK-based Prestwick Library Screening Results, K. pneumoniae (fold increase in extracellular AK activity).
Setting [6] is: planktonic, cutoff for positive-scoring molecules 3-fold increase, read-out: AK-based Prestwick Library Screening Results, A. baumannii (fold increase in extracellular AK activity).
Where [7] appears, read: planktonic, cutoff for positive-scoring molecules 3-fold increase, read-out: AK-based Prestwick Library Screening Results, P. aeruginosa (fold increase in extracellular AK activity).
[8] abbreviates: planktonic, cutoff for positive-scoring molecules 3-fold increase, read-out: AK-based Prestwick Library Screening Results, E. cloacae (fold increase in extracellular AK activity).
Where [9] appears, read: planktonic, cutoff for positive-scoring molecules 3-fold increase, read-out: AK-based Prestwick Library Screening Results, E. coli (fold increase in extracellular AK activity).

Structures can show the parent of a compound that is named as a salt. Where two headings read alike, the source gives them in different places.

In the case of `c1cnc(N2CCN(Cc3ccc4c(c3)OCO4)CC2)nc1` [Piribedil hydrochloride], the fold induction at 50 µM with E. faecium (planktonic E. faecium, positive cutoff 3-fold increase, read-out: AK-based Prestwick library screening result, E. faecium (fold increase in extracellular AK activity)) was found to be 0.9; in test [1] (planktonic S. aureus, positive cutoff 3-fold increase, read-out: AK-based Prestwick library screening result, S. aureus (fold increase in extracellular AK activity)), 0.6; with K. pneumoniae (planktonic K. pneumoniae, positive cutoff 3-fold increase, read-out: AK-based Prestwick library screening result, K. pneumoniae (fold increase in extracellular AK activity)), 0.5; in test [2] (planktonic A. baumannii, positive cutoff 3-fold increase, read-out: AK-based Prestwick library screening result, A. baumannii (fold increase in extracellular AK activity)) it was 0.7; in the test on P. aeruginosa (planktonic P. aeruginosa, positive cutoff 3-fold increase, read-out: AK-based Prestwick library screening result, P. aeruginosa (fold increase in extracellular AK activity)), 0.6; in the test with E. cloacae (planktonic E. cloacae, positive cutoff 3-fold increase, read-out: AK-based Prestwick library screening result, E. cloacae (fold increase in extracellular AK activity)) it was 1. Also, the fold induction at 50 µM with E. coli (planktonic E. coli, positive cutoff 3-fold increase, read-out: AK-based Prestwick library screening result, E. coli (fold increase in extracellular AK activity)) amounted to 0.6.

`N[C@@H](Cc1cc(I)c(Oc2cc(I)c(O)c(I)c2)c(I)c1)C(=O)O` [Thyroxine (L)]: the “AK-based Prestwick Library Screening Results: E. faecium (increase in extracellular AK activity)” value with E. faecium (planktonic E. faecium, 384-well, […]) is recorded as 1.0. Besides, the “AK-based Prestwick Library Screening Results: S. aureus (increase in extracellular AK activity)” value in test [1] (planktonic S. aureus, 384-well, […]) was 0.2. Besides, the “AK-based Prestwick Library Screening Results: K. pneumoniae (increase in extracellular AK activity)” value with K. pneumoniae (planktonic K. pneumoniae, 384-well, […]) is recorded as 0.4. Moreover, the “AK-based Prestwick Library Screening Results: A. baumannii (increase in extracellular AK activity)” value in test [2] (planktonic A. baumannii, 384-well, […]) was determined as 0.4. Also, the “AK-based Prestwick Library Screening Results: P. aeruginosa (increase in extracellular AK activity)” value in the test with P. aeruginosa (planktonic P. aeruginosa, 384-well, […]) worked out at 0.4. Besides, in the test with E. cloacae (planktonic E. cloacae, 384-well, […]), the “AK-based Prestwick Library Screening Results: E. cloacae (increase in extracellular AK activity)” value is recorded as 0.3. For the same compound, the “AK-based Prestwick Library Screening Results: E. coli (increase in extracellular AK activity)” value with E. coli (planktonic E. coli, 384-well, […]) is given as 0.5.

With `CN1CCC(=C2c3ccccc3Sc3ccccc32)CC1` [Pimethixene maleate], the fold induction at 50 µM was found to be 1.1 in the test with E. faecium (planktonic E. faecium, 384-well, […], read-out: AK-based Prestwick Library Screening Results: E. faecium (increase in extracellular AK activity)); 0.9 in test [1] (planktonic S. aureus, 384-well, […], read-out: AK-based Prestwick Library Screening Results: S. aureus (increase in extracellular AK activity)); 1.2 in the test on K. pneumoniae (planktonic K. pneumoniae, 384-well, […], read-out: AK-based Prestwick Library Screening Results: K. pneumoniae (increase in extracellular AK activity)); 1.1 in test [2] (planktonic A. baumannii, 384-well, […], read-out: AK-based Prestwick Library Screening Results: A. baumannii (increase in extracellular AK activity)); 1.1 in the test on P. aeruginosa (planktonic P. aeruginosa, 384-well, […], read-out: AK-based Prestwick Library Screening Results: P. aeruginosa (increase in extracellular AK activity)); 1.4 in the test with E. cloacae (planktonic E. cloacae, 384-well, […], read-out: AK-based Prestwick Library Screening Results: E. cloacae (increase in extracellular AK activity)). In the test with E. coli (planktonic E. coli, 384-well, […], read-out: AK-based Prestwick Library Screening Results: E. coli (increase in extracellular AK activity)), the fold induction at 50 µM stood at 1.4.

For Deptropine citrate, the “AK-based Prestwick library screening result, E. faecium (fold increase in extracellular AK activity)” value in the test with E. faecium (planktonic E. faecium, […]) was determined as 1.1. Further, in test [1] (planktonic S. aureus, […]), the “AK-based Prestwick library screening result, S. aureus (fold increase in extracellular AK activity)” value amounted to 1.1. Further, the “AK-based Prestwick library screening result, K. pneumoniae (fold increase in extracellular AK activity)” value in the test with K. pneumoniae (planktonic K. pneumoniae, […]) amounted to 0.9. Moreover, in test [2] (planktonic A. baumannii, […]), the “AK-based Prestwick library screening result, A. baumannii (fold increase in extracellular AK activity)” value is recorded as 1.3. Moreover, the “AK-based Prestwick library screening result, P. aeruginosa (fold increase in extracellular AK activity)” value in the test on P. aeruginosa (planktonic P. aeruginosa, […]) is on record as 1.0. Besides, the “AK-based Prestwick library screening result, E. cloacae (fold increase in extracellular AK activity)” value with E. cloacae (planktonic E. cloacae, […]) worked out at 1.6. In addition, the “AK-based Prestwick library screening result, E. coli (fold increase in extracellular AK activity)” value in the test on E. coli (planktonic E. coli, […]) was 1.5.

Regarding `CC(C(=O)O)c1ccc(-c2ccccc2)c(F)c1` (stereo not shown) [Flurbiprofen], the fold induction at 50 µM was 0.9 in the test on E. faecium (setting [3]); 0.6 in test [1] (setting [4]); 0.7 in the test on K. pneumoniae (setting [5]); 0.9 in test [2] (setting [6]); 0.8 in the test on P. aeruginosa (setting [7]); 1.6 in the test with E. cloacae (setting [8]). For the same compound, the fold induction at 50 µM in the test on E. coli (setting [9]) was 0.8.

Regarding `O=c1c(O)c(-c2cc(O)c(O)c(O)c2)oc2cc(O)cc(O)c12` [Myricetin], the fold induction at 50 µM is 0.8 with E. faecium (planktonic, cutoff for positive 3-fold increase, read-out: AK-based Prestwick Library Screening Results, E. faecium (fold increase in extracellular AK activity)); 0.5 in test [1] (planktonic, cutoff for positive 3-fold increase, read-out: AK-based Prestwick Library Screening Results, S. aureus (fold increase in extracellular AK activity)); 0.9 in the test with K. pneumoniae (planktonic, cutoff for positive 3-fold increase, read-out: AK-based Prestwick Library Screening Results, K. pneumoniae (fold increase in extracellular AK activity)); 0.8 in test [2] (planktonic, cutoff for positive 3-fold increase, read-out: AK-based Prestwick Library Screening Results, A. baumannii (fold increase in extracellular AK activity)); 0.9 with P. aeruginosa (planktonic, cutoff for positive 3-fold increase, read-out: AK-based Prestwick Library Screening Results, P. aeruginosa (fold increase in extracellular AK activity)); 1.2 in the test with E. cloacae (planktonic, cutoff for positive 3-fold increase, read-out: AK-based Prestwick Library Screening Results, E. cloacae (fold increase in extracellular AK activity)). The fold induction at 50 µM in the test with E. coli (planktonic, cutoff for positive 3-fold increase, read-out: AK-based Prestwick Library Screening Results, E. coli (fold increase in extracellular AK activity)) is 0.9.

`CC(C(=O)O)c1ccc(N2Cc3ccccc3C2=O)cc1` (stereo not shown) [Indoprofen]: the fold induction at 50 µM with E. faecium (setting [3]) amounted to 0.1; in test [1] (setting [4]), 0.2; with K. pneumoniae (setting [5]), 0.1; in test [2] (setting [6]), 0.2; in the test on P. aeruginosa (setting [7]), 0.2; in the test on E. cloacae (setting [8]) it was 1.5. The fold induction at 50 µM in the test with E. coli (setting [9]) worked out at 0.2.
